Tests used:
[1] = system: offspring of poly I:C treated dams; assay: PPI in offspring of poly I:C treated dams (mouse model for schizophrenia); format: in vivo
Description: Poly I:C administration. Rats or mice were bred, and the first day after copulation was defined as day 1 of pregnancy. On gestation day 15, pregnant animals were injected intravenously with 4.0 mg/kg poly I:C (Sigma-Aldrich, Israel) dissolved in saline, or an equivalent volume of saline as a control. Both rats and mice received the same protocol of poly I:C administration.
Prepulse Inhibition (PPI). PPI testing was performed within startle chambers purchased from Med Associates Inc (Med Associates, St. Albans, Vt., USA). PPI was analyzed as described previously (Kipnis et al., 2004). Briefly, during a period of acclimation, a 65-dB background noise was applied for 5-min, and continued throughout the test session. All sessions for testing of PPI consisted of startle trials (pulse alone, 40-ms, 120-dB), prepulse trials (prepulse 20-ms, 69, 73, 78, or 81 dB followed by a (100-ms delay) pulse), and no-stimulus trials. All sessions were presented in pseudo-random order. The average time between trials was 15 s (range 12-30 s). PPI was calculated as: % PPI=100−{[(startle response for prepulse+pulse)/(startle response for pulse-alone)]×100}. In all the experiments, there were no significant differences between groups in trials of startle reactivity to pulse alone, and in no-stimulation trials. Data from no-stimulation trials are not included in the results because the values obtained were negligible relative to values from trials containing startle stimuli. Reduced PPI is associated with schizophrenia-related behavior. The same protocol was used in mice and rats (FIG. 1A).
Kisspeptin treatment. Mice were injected i.p with 100 μl of 1/10/100 μM Kp-10 peptide (SEQ ID NO:3) (synthesized at the Weizmann Institute of Science, or Sigma-Aldrich, Israel) dissolved in PBS, 30 minutes before the PPI analysis.
The ability of a normal lymphocyte population to reverse abnormal PPI behavior in immune deficient mice, encouraged us to test whether immune cells derived from the offspring of poly I:C treated dams would reverse the abnormal behavior of SCID mice in the PPI test. […]

SCID mice = assay: Radial arm water maze (RAWM); format: in vivo, mouse; conditions: i.p. 100 μl containing 100 μM at beginning of each of two days, vs PBS
Description: Radial arm water maze (RAWM). Mice were tested for two days on 6 radial arm water maze paradigm in a water pool, as described in Alamed et al. (2006). Briefly, mice received Kp-10 injection in the beginning of each day. On the first day, 15 trials were performed, in trials 1, 3, 5, 7, 9 and 11 the platform was visible, and in all other trials the platform was hidden. On the second day, 12 trials were performed, all of them with hidden platform. The time required to reach the platform and the number of errors (incorrect arm entries) in 1-min time period were recorded (FIG. 11A).
One of the cognitive malfunctions in schizophrenia is deficit in spatial learning and memory. To evaluate whether kisspeptine can improve spatial learning and memory, we studied its effect in the radial arm water maze (RAWM), a hippocampal dependent spatial learning and memory assay. In this task, the mouse must find a platform that is located at one of the six maze arms; the time required to reach the platform and the number of errors along the way are recorded (Alamed et al., 2006) (FIG. 11A). Since wild type mice perform well in this test, the ability of Kp-10 to improve their performance is very limited. Therefore we used immune deficient mice (severe combined immunodeficiency; SCID), which have cognitive deficit manifested by poorer performance in the RAWM test. […]

YNWNSFGLRF—NH2 [Kp-10]
PPI at adulthood (12 weeks) ([1]; single i.p. injection at adolescence (8 weeks), 100 μl containing 100 μM, vs PBS): did not exhibit abnormal PPI
PPI ([1]; treatment at adulthood (12 weeks) after onset, 100 μl of 100 μM, 30 min before PPI): improved the abnormal PPI
latency time to find the platform (SCID mice): improved
number of errors (SCID mice): reduced

Reference: US8716228B2, “GPR54 agonists or antagonists for treatment of diseases presenting behavioral abnormalities” (YEDA Research and Development Co. Ltd., priority 2009, dated 2014)
